Source: patent US20090081320A1, “Method for Weight Reduction” (priority 2005, published 2009)

Experiment: General observations in test persons using the diet with or without composition
Assay type: in vivo, human
Conditions: diet not adhered to, additional intake
Text: It was observed that the application of the diet according to the invention by itself leads to a weight reduction. In all the test persons, however, side effects such as weakness and/or indisposition as well as gluttonous attacks were reported. […] This is due to the fact that with the intake of the composition that contains one or several active agents which promote fat burning, utilizable energy is made available and the fat burning is accelerated. A test person reported at the start of the reduction cycle on changing over to the diet in accordance with the invention combined with the simultaneous intake of a composition that contains one or several active agents which promote fat burning, that after 2-3 days, the feeling of indisposition or gluttonousness were no longer to be felt and the diet could be well adhered to.
Therefore, the composition contains, in a preferred embodiment in addition to one or several active agents that promote fat burning, one or several active agents that reduce the breakdown of fat to fatty acids in the intestines. Active agents that reduce the breakdown of fat to fatty acids in the intestines are herein active agents that inhibit enzymes which catalyse the breakdown of the fats (tricylglycerines) to fatty acids and glycerines. […] For a body weight deviating from this value, the quantity is to be appropriately adjusted.

With `C[N+](C)(C)C[C@H](O)CC(=O)[O-]` [L-canitine, (3R)-hydroxy-4-(trimethylammonium)-butyrat] the weight loss was “no weight loss”.
